According to patent US11555055B2, “Peptide inhibitors of insulin-degrading enzyme” (The Regents of the University of California, priority 2017, dated 2023):
Where a SMILES comes first, the peptide text is derived from it. Bridges are numbered along the chain shown (N, C = ends).

Biological target: T1, IDE (Homo sapiens, UniProt P14735)
T1 construct: made in house; host or cells: bacteria
T1 sequence (P14735 1-1019): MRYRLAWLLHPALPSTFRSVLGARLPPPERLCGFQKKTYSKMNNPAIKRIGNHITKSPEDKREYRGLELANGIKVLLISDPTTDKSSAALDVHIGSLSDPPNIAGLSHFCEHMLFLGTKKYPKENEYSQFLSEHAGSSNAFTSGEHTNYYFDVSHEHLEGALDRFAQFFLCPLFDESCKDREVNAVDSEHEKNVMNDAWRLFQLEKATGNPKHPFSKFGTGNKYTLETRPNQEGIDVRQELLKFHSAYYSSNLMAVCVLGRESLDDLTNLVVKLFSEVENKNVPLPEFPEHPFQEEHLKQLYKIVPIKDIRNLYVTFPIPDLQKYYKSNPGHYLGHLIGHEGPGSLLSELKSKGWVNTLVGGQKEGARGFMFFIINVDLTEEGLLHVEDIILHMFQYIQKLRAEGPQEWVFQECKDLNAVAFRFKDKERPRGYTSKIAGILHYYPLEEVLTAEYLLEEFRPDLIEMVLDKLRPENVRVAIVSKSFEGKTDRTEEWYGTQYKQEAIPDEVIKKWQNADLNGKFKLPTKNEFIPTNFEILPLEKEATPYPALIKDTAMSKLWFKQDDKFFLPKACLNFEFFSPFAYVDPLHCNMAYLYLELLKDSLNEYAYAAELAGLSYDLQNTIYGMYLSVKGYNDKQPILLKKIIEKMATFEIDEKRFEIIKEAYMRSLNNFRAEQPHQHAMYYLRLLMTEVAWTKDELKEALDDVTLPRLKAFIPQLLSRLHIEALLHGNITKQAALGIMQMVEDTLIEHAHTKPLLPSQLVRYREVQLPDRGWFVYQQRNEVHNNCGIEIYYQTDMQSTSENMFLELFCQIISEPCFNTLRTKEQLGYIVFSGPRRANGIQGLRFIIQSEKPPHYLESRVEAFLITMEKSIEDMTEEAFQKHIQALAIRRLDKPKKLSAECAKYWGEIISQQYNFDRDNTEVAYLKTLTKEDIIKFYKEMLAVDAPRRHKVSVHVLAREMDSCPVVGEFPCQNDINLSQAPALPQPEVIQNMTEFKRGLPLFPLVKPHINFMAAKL
Test: Vulnerability of peptides to degradation by IDE: potency after 0 or 4 h pre-incubation with IDE, FRET1 assay
Type: biochemical
Conditions: 4-h incubation with IDE
Description: FIG. 2. Vulnerability of peptides to degradation by IDE assessed by activity assays.
Because IDE is a peptidase, it was critical to determine whether the peptides were degraded by IDE over time. […] Because this peptide is capable of forming a disulfide bond between its two cysteines, but was not deliberately cyclized prior to testing, we suspect that the peptide (and related variants) may have cyclized over time, contributing to its stability. […]
Degradation Assays—IDE activity was quantified by monitoring the degradation of (7-methoxycoumarin-4-yl)acetic acid-[…](2,4-dinitrophenyl) (FRET1, 5 μM) (49,55), fluoresceinated and biotinylated amyloid β-protein (FAβB; 500 nM) or recombinant human insulin (50 nM) in PBS supplemented with 0.05% BSA. FRET1 degradation was measured by changes in fluorescence (λex=340 nm, λem=420 nm); FAβB degradation was monitored by fluorescence polarization (λex=488 nm, λem=525 nm), as described (56); and insulin degradation was quantified by ELISA. […] For quantitation of insulin degradation in primary murine skin fibroblasts, cells (1×10^5/well) were plated in 96-well plates and maintained in DMEM supplemented with 10% fetal bovine serum (FBS), 2 mM glutamine, penicillin and streptomycin. […]

- increase in potency at the 4-h time point relative to t=0: 1 fold
Compound: CC(C)C[C@H](NC(=O)[C@H](CO)NC(=O)[C@@H](N)CCC(N)=O)C(=O)N1CCC[C@H]1C(=O)N[C@@H](Cc1c[nH]c2ccccc12)C(=O)N[C@H]1CSSC[C@@H](C(=O)N[C@H](C(=O)N[C@H](C(N)=O)[C@@H](C)O)C(C)C)NC(=O)[C@H](Cc2c[nH]cn2)NC(=O)[C@@H]2CCCN2C(=O)[C@H](Cc2ccc(O)cc2)NC1=O [Peptide P12-3A] (H-QSLPWCYPHCVT-NH2; disulfide 6-10 (inferred))
